Here are results for 10 compounds from ChEMBL document CHEMBL3045953, “Pyrazolo[3,4-d]pyrimidine analogues: synthesis, characterization and their in vitro antiamoebic activity” (Med Chem Res, 2013).

Structures are written as SMILES.

Broadly, the IC50 is the concentration at which inhibition is half-maximal.

The test system of the first test is MCF7. The experiment in a line: Cytotoxicity against Homo sapiens (human) MCF-7 cells assessed as decrease in number of viable cells after 48 hr by MTT assay. The test is classed as ADME, cell-based. As to conditions: MCF7, 48 h. (Tetrazolium dyes change colour on reduction, which living cells bring about.)
Turning to `Cc1ccc(S(=O)(=O)n2nc(-c3ccccc3)c3c(N)ncnc32)cc1`, the IC50 was more than 250 µM. In the case of `CC(=O)Nc1ccc(S(=O)(=O)n2nc(-c3ccccc3)c3c(N)ncnc32)cc1`, the IC50 is more than 250 µM. Same read-out and setting: to `Cc1ncc([N+](=O)[O-])n1CCO` [METRONIDAZOLE] belongs more than 250 µM.

The next test relates to Entamoeba histolytica. In words: Antiamoebic activity against Entamoeba histolytica HM-1:IMSS trophozoite assessed as growth inhibition after 72 hr by microdilution method. The test is classed as functional, organism-based.
Conditions: not given
A general note: In broth dilution the organism is exposed to a series of concentrations in liquid medium.
`Cc1ccc(S(=O)(=O)n2nc(-c3ccccc3)c3c(N)ncnc32)cc1`: the IC50 turned out to be 0.57 µM. On the same count and under the same terms, to `Nc1ncnc2c1c(-c1ccccc1)nn2S(=O)(=O)c1ccc([N+](=O)[O-])cc1` belongs 2.52 µM.

For the compound `CC(=O)Nc1ccc(S(=O)(=O)n2nc(-c3ccccc3)c3c(N)ncnc32)cc1`, the half-maximal inhibitory concentration (IC50) amounted to 0.68 µM. On to `Nc1ncnc2c1c(-c1ccccc1)nn2S(=O)(=O)c1ccc(Cl)cc1`, for which the IC50 was 3.23 µM. Still for that read-out and setting: to `Nc1ncnc2c1c(-c1ccccc1)nn2S(=O)(=O)c1cc(Cl)ccc1Cl` belongs 2.37 µM; to `Nc1ncnc2c1c(-c1ccccc1)nn2S(=O)(=O)c1ccc2ccccc2c1`, 3.11 µM.

Consider `Nc1ncnc2c1c(-c1ccccc1)nn2S(=O)(=O)c1ccccc1`, for which the IC50 was 4.24 µM. Still for that read-out and setting: to `CS(=O)(=O)n1nc(-c2ccccc2)c2c(N)ncnc21` belongs 5.15 µM; to `Cc1ccc(-c2cc(-c3cccc(-c4cc(-c5ccc(C)cc5)nc(N5CCCC5)n4)c3)nc(N3CCCC3)n2)cc1`, 0.16 µM.
